One data set has as its system rgDENV2 NS5-G605V. Format: cell-based, dengue virus.
Another data set concerns the target ZIKV NS5 (RdRp) (Zika virus, UniProt A0A024B7W1). The class given is biochemical.
In the next data set the test system is LACV. Put plainly: organism not typed. Format: cell-based. The settings on record: MDBK.
Another data set relates to JUNV. The data set is described as follows: microbe, parasite or virus in culture. The class given is cell-based. Conditions: Mammarenavirus juninense, HEK-293T.
Another data set relates to LCMV. The data set is described as follows: microbe, parasite or virus in culture. Format: cell-based. The settings on record: Mammarenavirus choriomeningitidis.
Another data set has as its system SFTSV. Put plainly: microbe, parasite or virus in culture. Format: cell-based. Conditions: Severe fever with thrombocytopenia syndrome virus, MDCK.
The next data set relates to YFV. Put plainly: microbe, parasite or virus in culture. The class given is cell-based. Conditions: Yellow fever virus, BHK-21, 72 h.
A further data set concerns LPHV. The data set is described as follows: microbe, parasite or virus in culture. Format: cell-based. The settings on record: Leopards Hill virus.
The subject of data set [1] is DENV2. Put plainly: microbe, parasite or virus in culture. Conditions: Dengue virus, DENV2, BHK-21, 96 h. Format: cell-based.
In the next data set the test system is MERS-CoV. Put plainly: microbe, parasite or virus in culture. The class given is cell-based. Conditions: Middle East respiratory syndrome-related coronavirus, VeroE6/TMPRSS2.
The test system of another data set is IAV H7N9. Put plainly: microbe, parasite or virus in culture. The class given is cell-based. The settings on record: Influenza A virus, H7N9, MA104.
Another data set relates to CHIKV. The data set is described as follows: microbe, parasite or virus in culture. The class given is cell-based. Conditions: Chikungunya virus, BHK-21.
In a further data set the test system is rgDENV2 Wild type. The data set is described as follows: microbe, parasite or virus in culture. The class given is cell-based. The settings on record: Dengue virus, BHK-21, 96 h.
The subject of the next data set is ZIKV. The data set is described as follows: microbe, parasite or virus in culture. The class given is cell-based. The settings on record: Zika virus, BHK-21, 72 h.
The test system of a further data set is SARS-CoV-2. Put plainly: microbe, parasite or virus in culture. The class given is cell-based. Conditions: Severe acute respiratory syndrome coronavirus 2, VeroE6/TMPRSS2.
For data set [2], the system named is DENV2. The data set is described as follows: microbe, parasite or virus in culture. The class given is cell-based. The settings on record: Dengue virus, DENV2, Huh-7.
For another data set, the system named is RVFV. The data set is described as follows: microbe, parasite or virus in culture. The class given is cell-based. Conditions: Rift Valley fever virus, MDCK.
The next data set has as its system IAV H5N1. The data set is described as follows: microbe, parasite or virus in culture. Format: cell-based. The settings on record: Influenza A virus, H5N1, A549.
The conditions of data set [3]: mouse, in vivo.
The subject of another data set is DENV2 AG-P10. Further details: species or system AG129 mice. The settings on record: mouse, in vivo.

The record followed here is publication PMC10589713 (Proceedings of the National Academy of Sciences of the …, 2023).

Where “and” joins values, the source holds several entries; their conditions need not be identical. Identical values can stand only once.

Chain of ZIKV NS5 (RdRp) (A0A024B7W1 2521-3423 limits assumed): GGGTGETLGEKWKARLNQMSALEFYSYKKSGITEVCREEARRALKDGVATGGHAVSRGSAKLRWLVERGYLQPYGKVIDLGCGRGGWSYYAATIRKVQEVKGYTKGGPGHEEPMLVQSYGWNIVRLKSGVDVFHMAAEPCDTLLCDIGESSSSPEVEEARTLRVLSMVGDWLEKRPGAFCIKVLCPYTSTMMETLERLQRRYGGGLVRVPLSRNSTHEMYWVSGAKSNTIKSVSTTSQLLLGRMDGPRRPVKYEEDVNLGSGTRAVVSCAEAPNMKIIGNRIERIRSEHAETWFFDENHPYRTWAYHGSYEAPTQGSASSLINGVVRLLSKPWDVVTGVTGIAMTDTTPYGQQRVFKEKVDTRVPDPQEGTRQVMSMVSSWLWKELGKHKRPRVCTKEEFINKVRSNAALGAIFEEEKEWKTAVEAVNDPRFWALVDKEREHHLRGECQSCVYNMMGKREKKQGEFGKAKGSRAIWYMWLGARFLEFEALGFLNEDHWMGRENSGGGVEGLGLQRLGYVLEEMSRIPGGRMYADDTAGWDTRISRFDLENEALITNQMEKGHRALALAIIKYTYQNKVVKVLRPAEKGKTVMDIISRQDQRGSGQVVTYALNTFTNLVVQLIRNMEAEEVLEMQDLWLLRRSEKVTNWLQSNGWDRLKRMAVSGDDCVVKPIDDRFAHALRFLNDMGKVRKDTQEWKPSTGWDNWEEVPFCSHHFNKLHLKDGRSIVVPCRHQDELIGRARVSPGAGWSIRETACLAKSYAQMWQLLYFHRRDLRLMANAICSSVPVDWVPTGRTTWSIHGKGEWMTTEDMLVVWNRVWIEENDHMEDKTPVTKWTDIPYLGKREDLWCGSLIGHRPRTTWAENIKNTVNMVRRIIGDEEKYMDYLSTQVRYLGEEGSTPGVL

`NC(=O)c1ncn([C@@H]2O[C@H](CO)[C@@H](O)[C@H]2O)n1` [Ribavirin]: the Fold change in the data set with rgDENV2 NS5-G605V is given as 2.3.
Consider `O=c1ccn([C@@H]2O[C@H](COP(=O)(O)OP(=O)(O)OP(=O)(O)O)[C@@H](O)[C@H]2O)c(=S)[nH]1` [s2UTP, s2U 5′-triphosphate], for which the “RNA extension catalyzed by ZIKV RdRp” value on ZIKV NS5 (RdRp) is listed as “inhibited RNA extension”.
For `O=c1ccn([C@@H]2O[C@H](CO)[C@@H](O)[C@H]2O)c(=S)[nH]1` [s2U, 2-thiouridine], the EC50 in the data set on LACV is above 100 µM; with JUNV, above 100 µM; in the data set on LCMV it was above 100 µM; in the data set on SFTSV, above 100 µM; in the data set with YFV it was 3.2 ± 1.4 µM; in the data set with LPHV, above 100 µM. For the same molecule, the EC50 is 5.1 ± 0.69 µM with rgDENV2 NS5-G605V; 1.5 ± 0.1 µM in the data set with DENV2 [1]; 2.3 µM in the data set with MERS-CoV; above 100 µM with IAV H7N9; 3.8 ± 0.12 µM with CHIKV; 0.86 ± 0.12 µM with rgDENV2 Wild type. Also, the 50% effective concentration (EC50) in the data set on ZIKV was 3.8 ± 0.96 µM; in the data set on SARS-CoV-2, 2.3 ± 0.43 µM; in the data set on DENV2 [2], below 0.63 µM; with RVFV it was above 100 µM; in the data set with IAV H5N1 it was above 100 µM. In the data set with V79 cells, the “mutagenicity, HPRT (in vitro gene mutation test)” value is given as “does not have sufficient ability to introduce mutations”. The molecule also yielded a 90% effect concentration (EC90) in the data set with DENV2 [2] of 3.4 µM. Moreover, the body weight change entry in data set [3] is recorded as “no BW loss”. Further, the median survival with DENV2 AG-P10 is 12.5 days and > 16 days and 12 days and 13 days.
On to `NC(=O)c1nc(F)c[nH]c1=O` [Favipiravir], for which the Fold change in the data set on rgDENV2 NS5-G605V was determined as 2.2.
